Like-named read-outs stand apart in the source and are kept apart here.
Legend:
plasma LH = assay: Example I: plasma LH by double-antibody radioimmunoassay after single iv dose; assay type: in vivo, cattle; conditions: for plasma LH concentrations compared to saline-treated controls: doses combined
Description: (§1) Heifers in which a CL was detected during the initial examination were given […] cloprostenol (PGF, Estrumate™, Schering-Plough Animal Health, Pointe-Claire, QC, Canada) intramuscularly (im) to induce regression of the CL and to synchronize ovulation. Heifers were examined daily by transrectal ultrasonography to detect ovulation. Transvaginal ultrasound-guided follicular aspiration of follicles ≧5 mm was performed five to eight days after ovulation to synchronize wave emergence. Heifers were examined daily by transrectal ultrasonography to detect follicular wave emergence, which was expected 1 to 1.5 days after follicular ablation. Four days after follicular ablation (approximately 2.5 days after follicular wave emergence), and at the time follicular dominance becomes apparent, heifers were assigned randomly to the following treatment groups and given a single intravenous dose of 1) 500 μg/kg of letrozole (high dose group, n=9), 2) 250 μg/kg of letrozole (medium dose group, n=10), 3) 125 μg/kg of letrozole (low dose group, n=10), or 4) 20 ml of phosphate buffered saline (PBS control group, n=10). For practical purposes, the dose of letrozole was calculated based on an average weight of 400 kg for all heifers. The average oral dose used in women (2.5-5 mg per day for 5 days) was used to estimate the medium dose for cattle. The high and low doses were set as double and half the medium dose, respectively. The day of treatment was defined as Day 0. For intravenous injection, letrozole was prepared in 95% ethanol at a final concentration of 5 mg per ml, resulting in an injection volume of 10-40 ml. The experiment was performed in four replicates (n=2-3 per group per replicate) and each heifer was used only once.
(§2) Statistical analyses were done using the Statistical Analysis System software package (SAS Learning Edition 9.1, 2006; SAS Institute Inc., Cary, N.C., USA). Time-series hormone data, plasma letrozole concentration, and follicular diameter profiles were analyzed by repeated measures, using the PROC MIXED procedure. The main effects were treatment (high, medium and low dose, and control), time, and their interactions.

plasma estradiol = assay: Example I: plasma estradiol by ELISA after single iv dose; assay type: in vivo, cattle; conditions: doses combined
Description: as §1, §2

[1] = Example II: plasma letrozole concentration during 3-day regimen (HPLC/MS); assay type: in vivo, cattle; conditions: for plasma letrozole concentration, overall mean: 85 μg/kg/day iv
Description: Four days after follicular ablation, heifers were given 500 μg of cloprostenol (PGF, Estrumate, Schering-Plough Animal Health, Pointe-Claire, QC, Canada) intramuscularly (im) to induce regression of the CL and to synchronize ovulation. The experiment was performed in two replicates (n=20-27 per replicate) and each heifer was used only once. In replicate 1, heifers were assigned randomly at the time of ovulation (Day 0) to the following groups and given a 3-day regimen of letrozole from Days 1 to 3 (n=5), Days 3 to 5 (n=5), Days 5 to 7 (n=5), or no treatment (control group, n=5). In replicate 2, heifers were similarly assigned to groups and given letrozole from Days 1 to 3, (n=5), Days 3 to 5 (n=4), or Days 5 to 7 (n=4), but untreated control heifers were arranged in three sub-groups to serve as contemporaneous controls for each letrozole-group during intensive blood sampling periods (i.e., control Days 1 to 3, n=4; control Days 3 to 5, n=4; and control Days 5 to 7, n=5). For practical purposes, the total dose of letrozole (250 μg/kg) was calculated on the basis of an average weight of 350 kg for all heifers and administered intravenously in daily divided doses over 3 days (85 μg/kg per day). For intravenous injection, letrozole was prepared in 95% ethanol to a final concentration of 5 mg/ml, resulting in an injection volume of 6 mL/day.
Blood samples were collected by jugular or coccygeal venipuncture into 10 ml heparinised, vacuum tubes (Vacutainer tubes; Becton Dickinson Vacutainer Systems, Franklin Lakes, N.J., USA). Blood samples were collected daily from pre-treatment ovulation to post-treatment ovulation. In replicate 1, additional samples were collected from letrozole-treated heifers every 12 hours from the beginning of treatment to first wave emergence. In replicate 2, heifers were sampled at 15 minute intervals for the first 8 hours after the second dose of letrozole (i.e., second day of treatment) using an indwelling jugular catheter, as described previously. Blood samples were centrifuged at 1500×g for 20 minutes, and plasma was separated and stored in plastic tubes at −20° C.
Plasma concentrations of letrozole were determined from samples collected every 12 hours from pre-treatment to one day after cessation of treatment using high performance liquid chromatographytandem mass spectrometry (HPLC/MS) as described in Chapter 4, Section 4.3.6.

women = assay: Letrozole at expected time of ovulation in women; assay type: in vivo, human; conditions: women treated at 18 mm follicle diameter
[2] = cited from earlier work
[3] = 85 μg/kg/day iv for 3 days, all three groups

For `N#Cc1ccc(C(c2ccc(C#N)cc2)n2cncn2)cc1` [Letrozole, letrozole], the “plasma LH concentrations compared to saline-treated controls” value (plasma LH; 4-day period after single iv dose, P=0.01) was “higher”, the “plasma LH concentrations compared to saline-treated controls” value (plasma LH; first 12 hours following single iv dose, P=0.05) was “higher” and the “duration of elevated LH levels after treatment” value (plasma LH; single iv dose) was “at least 4 days”. For the same compound, the “time after letrozole at which endogenous LH began to rise” value (plasma LH; single iv dose) was 2 h, the plasma estradiol concentration (plasma estradiol; 0 hours (at treatment), mean±SEM) was 15.2 ± 3.01 pg/mL and the plasma estradiol concentration (plasma estradiol; 24 hours after single iv dose, P=0.03 vs 0 hours) was 8.0 ± 1.51 pg/mL. For the same compound, the “decrease of plasma estradiol from 0 to 24 hours after treatment” value (plasma estradiol; single iv dose) was roughly 50%, the “mean plasma estradiol over the 4-day period after treatment compared to controls” value (plasma estradiol; single iv dose, P=0.06) was “tended to be higher” and the “time after initiation of treatment by which plasma letrozole was elevated” value [1, 3] was no more than 12 h. For the same compound, the “time by which plasma letrozole declined to approximately half peak values” [1, 3] was no more than 108 h, the “time by which plasma letrozole reached peak levels” value [1, 3] was no more than 60 h and the “plasma letrozole concentration, overall mean” value (“plasma letrozole concentration” below) ([1]; Days 1 to 3) was 68.6 ± 4.79 ng/mL. For the same compound, the “plasma letrozole concentration” value ([1]; Days 3 to 5) was 43.9 ± 4.75 ng/mL, the “plasma letrozole concentration” value ([1]; Days 5 to 7) was 55.6 ± 4.75 ng/mL and the “mean circulating level of letrozole during the first 96 hours” value ([1]; 250 μg/kg, 3-day protocol) was 60.8 ± 3.36 ng/mL. For the same compound, the concentration at 96 hours ([1]; female, bovine, plasma, intravenous, 85 μg/kg per day, 250 μg/kg divided in a 3-day regimen, read-out: mean concentration of letrozole in the circulation at 96 hours) was 51.6 ± 4.33 ng/mL, the “ovulation earlier than controls” value (women) was 24 h and the half-life of letrozole ([2]; in humans [46]) was “approximately 2 days”. The half-life of letrozole ([2]; in women [41, 61]) was 48 h, the mean residence time ([2]; in women [41]) was 59 h and the volume of distribution ([2]; in women [41]) was 1.87 L/kg.

Reference: patent US9144569B2, “Methods of administering an aromatase inhibitor, prostaglandin and GnRH for regulating ovulation in cattle” (UNIVERSITY OF SASKATCHEWAN, priority 2010, dated 2015)
